The record followed here is patent US12679878B2, “CRF2 receptor agonists and their use in therapy” (SANOFI, priority 2020, dated 2026).

This experiment has as its target T1, human CRF2α receptor (Homo sapiens, UniProt Q13324).
T1 construct: expressed in transfected cells; host or cells: TeloHEAC
T1 sequence (Q13324 1-411): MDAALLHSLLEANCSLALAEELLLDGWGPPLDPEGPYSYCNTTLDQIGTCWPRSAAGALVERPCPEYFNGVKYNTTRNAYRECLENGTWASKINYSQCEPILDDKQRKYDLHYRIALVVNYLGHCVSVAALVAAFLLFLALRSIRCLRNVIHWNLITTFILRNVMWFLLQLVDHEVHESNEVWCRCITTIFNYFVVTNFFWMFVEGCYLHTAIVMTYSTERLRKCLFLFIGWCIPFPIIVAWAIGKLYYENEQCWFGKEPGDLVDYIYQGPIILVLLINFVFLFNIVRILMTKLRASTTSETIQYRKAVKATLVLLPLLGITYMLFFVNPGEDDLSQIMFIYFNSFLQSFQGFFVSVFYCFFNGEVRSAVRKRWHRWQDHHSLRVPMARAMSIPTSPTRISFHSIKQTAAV
Description: cAMP agonism at human CRF2 α receptor in TeloHEAC cells (Example 7). It is filed as cell-based. The method, boiled down:
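Thawed frozen stably transfected cells in HBSS/20 mM HEPES (0% or 0.1% HSA) plus 2 mM IBMX were exposed to compound at 2000 cells/well for 30 min at room temperature. Intracellular cAMP was read by HTRF (665/620 nm ratio) after 1 h lysis; EC50 was derived with 1000 nM urocortin 2 set as 100%.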

Where [1] appears, read: cAMP HTRF, TeloHEAC cells stably expressing human CRF2 α, 0% HSA, read-out: EC50 [nM], 0% HSA.
Setting [2] is: cAMP HTRF, TeloHEAC cells stably expressing human CRF2 α, 0.1% HSA, read-out: EC50 [nM], 0.1% HSA.

Read-outs that look alike come from different tables or passages of the source. Starred links: 1 amine or outer side, 2 acyl side, 3 side chain; linkers in the order of their positions; H or OH if unused. Non-standard residues stand in square brackets, D forms with d. Residues, ends and D or L forms follow the SMILES beside them. Groups on a side chain read outwards from the residue. *: point of attachment. C18 diacid = O=C(O)CCCCCCCCCCCCCCCCC(=O)*; γGlu = O=C(O)[C@H](CCC(=O)[*:2])N[*:1]; AEEA = NCCOCCOCC(=O)O; Aib = CC(C)(N)C(=O)O

As usually defined, the EC50 is the midpoint of the concentration-response curve.

With `CC[C@H](C)[C@H](N)C(=O)N[C@H](C(=O)N[C@@H](CC(C)C)C(=O)N[C@@H](CO)C(=O)N[C@@H](CC(C)C)C(=O)N[C@@H](CC(=O)O)C(=O)N[C@@H](C(=O)N1CCC[C@H]1C(=O)N[C@H](C(=O)N[C@@H](CCCCN)C(=O)N[C@@H](CC(C)C)C(=O)N[C@@H](CCCCNC(=O)COCCOCCNC(=O)COCCOCCNC(=O)CC[C@H](NC(=O)CCCCCCCCCCCCCCCCC(=O)O)C(=O)O)C(=O)N[C@@H](CCC(N)=O)C(=O)N[C@H](C(=O)N[C@@H](CC(C)C)C(=O)N[C@@H](CC(C)C)C(=O)N[C@@H](CCC(=O)O)C(=O)N[C@@H](CCC(N)=O)C(=O)N[C@@H](C)C(=O)N[C@@H](CCCCN)C(=O)N[C@@H](CCC(N)=O)C(=O)N[C@@H](CCCCN)C(=O)NC(C)(C)C(=O)N[C@@H](CCC(N)=O)C(=O)N[C@@H](CCCNC(=N)N)C(=O)N[C@@H](CCC(=O)O)C(=O)N[C@@H](CCC(N)=O)C(=O)N[C@@H](C)C(=O)N[C@@H](CCC(=O)O)C(=O)N[C@@H](CCCCN)C(=O)N[C@@H](CC(N)=O)C(=O)N[C@@H](CCCCN)C(=O)N[C@@H](CCCNC(=N)N)C(=O)N[C@H](C(=O)N[C@@H](CC(C)C)C(=O)N[C@@H](CCC(=O)O)C(=O)N[C@@H](CCCNC(=N)N)C(=O)N[C@H](C(N)=O)C(C)C)[C@@H](C)CC)[C@@H](C)CC)[C@@H](C)CC)C(C)C)C(C)C` [compound 127] (H-IVLSLD[dV]PIKLK([AEEA-AEEA-γGlu-C18 diacid])QILLEQAKQK[Aib]QREQAEKNKRILERV-NH2; N-terminus assumed), the concentration for a half-maximal effect (EC50) was 0.16 nM under setting [1] and 5.14 nM under setting [2].

As for `CC[C@H](C)[C@H](N)C(=O)N[C@H](C(=O)N[C@@H](CC(C)C)C(=O)N[C@@H](CO)C(=O)N[C@@H](CC(C)C)C(=O)N[C@@H](CC(=O)O)C(=O)N[C@@H](C(=O)N1CCC[C@H]1C(=O)N[C@H](C(=O)N[C@@H](CCCCN)C(=O)N[C@@H](CC(C)C)C(=O)N[C@@H](CCCCNC(=O)COCCOCCNC(=O)COCCOCCNC(=O)CC[C@H](NC(=O)CCCCCCCCCCCCCCCCC(=O)O)C(=O)O)C(=O)N[C@@H](CCC(N)=O)C(=O)N[C@H](C(=O)N[C@@H](CC(C)C)C(=O)N[C@@H](CC(C)C)C(=O)N[C@@H](CCCCN)C(=O)N[C@@H](CCC(N)=O)C(=O)N[C@@H](C)C(=O)N[C@@H](CCCNC(=N)N)C(=O)N[C@@H](CCC(N)=O)C(=O)N[C@@H](CCCCN)C(=O)NC(C)(C)C(=O)N[C@@H](CCC(N)=O)C(=O)N[C@@H](CCCNC(=N)N)C(=O)N[C@@H](CCC(=O)O)C(=O)N[C@@H](CCC(N)=O)C(=O)N[C@@H](C)C(=O)N[C@@H](CCC(=O)O)C(=O)N[C@@H](CCCCN)C(=O)N[C@@H](CC(N)=O)C(=O)N[C@@H](CCCCN)C(=O)N[C@@H](CCCNC(=N)N)C(=O)N[C@H](C(=O)N[C@@H](CC(C)C)C(=O)N[C@@H](CCC(=O)O)C(=O)N[C@@H](CCCNC(=N)N)C(=O)N[C@H](C(N)=O)C(C)C)[C@@H](C)CC)[C@@H](C)CC)[C@@H](C)CC)C(C)C)C(C)C` [compound 128] (H-IVLSLD[dV]PIKLK([AEEA-AEEA-γGlu-C18 diacid])QILLKQARQK[Aib]QREQAEKNKRILERV-NH2; N-terminus assumed), the concentration giving a half-maximal response (EC50) stood at 0.64 nM under setting [1] and 20.1 nM under setting [2].

Turning to `CC[C@H](C)[C@H](N)C(=O)N[C@H](C(=O)N[C@@H](CC(C)C)C(=O)N[C@@H](CO)C(=O)N[C@@H](CC(C)C)C(=O)N[C@@H](CC(=O)O)C(=O)N[C@@H](C(=O)N1CCC[C@H]1C(=O)N[C@H](C(=O)N[C@@H](CCCCN)C(=O)N[C@@H](CC(C)C)C(=O)N[C@@H](CCCCNC(=O)COCCOCCNC(=O)COCCOCCNC(=O)CC[C@H](NC(=O)CCCCCCCCCCCCCCCCC(=O)O)C(=O)O)C(=O)N[C@@H](CCC(N)=O)C(=O)N[C@H](C(=O)N[C@@H](CC(C)C)C(=O)N[C@@H](CC(C)C)C(=O)N[C@@H](CCC(=O)O)C(=O)N[C@@H](CCC(N)=O)C(=O)N[C@@H](CCC(=O)O)C(=O)N[C@@H](CCCNC(=N)N)C(=O)N[C@@H](CCC(N)=O)C(=O)N[C@@H](CCCCN)C(=O)NC(C)(C)C(=O)N[C@@H](CCC(N)=O)C(=O)N[C@@H](CCCNC(=N)N)C(=O)N[C@@H](CCC(=O)O)C(=O)N[C@@H](CCC(N)=O)C(=O)N[C@@H](C)C(=O)N[C@@H](CCC(=O)O)C(=O)N[C@@H](CCCCN)C(=O)N[C@@H](CC(N)=O)C(=O)N[C@@H](CCCCN)C(=O)N[C@@H](CCC(N)=O)C(=O)N[C@H](C(=O)N[C@@H](CC(C)C)C(=O)N[C@@H](C)C(=O)N[C@@H](CCC(N)=O)C(=O)N[C@H](C(N)=O)C(C)C)[C@@H](C)CC)[C@@H](C)CC)[C@@H](C)CC)C(C)C)C(C)C` [compound 129] (H-IVLSLD[dV]PIKLK([AEEA-AEEA-γGlu-C18 diacid])QILLEQERQK[Aib]QREQAEKNKQILAQV-NH2), the EC50 turned out to be 0.15 nM under setting [1] and 3.02 nM under setting [2].

Regarding `CC[C@H](C)[C@H](N)C(=O)N[C@H](C(=O)N[C@@H](CC(C)C)C(=O)N[C@@H](CO)C(=O)N[C@@H](CC(C)C)C(=O)N[C@@H](CC(=O)O)C(=O)N[C@@H](C(=O)N1CCC[C@H]1C(=O)N[C@H](C(=O)N[C@@H](CCCCN)C(=O)N[C@@H](CC(C)C)C(=O)N[C@@H](CCCCNC(=O)COCCOCCNC(=O)COCCOCCNC(=O)CC[C@H](NC(=O)CCCCCCCCCCCCCCCCC(=O)O)C(=O)O)C(=O)N[C@@H](CCC(N)=O)C(=O)N[C@H](C(=O)N[C@@H](CC(C)C)C(=O)N[C@@H](CC(C)C)C(=O)N[C@@H](CCCCN)C(=O)N[C@@H](CCC(N)=O)C(=O)N[C@@H](CCC(=O)O)C(=O)N[C@@H](CCCNC(=N)N)C(=O)N[C@@H](CCC(N)=O)C(=O)N[C@@H](CCCCN)C(=O)NC(C)(C)C(=O)N[C@@H](CCC(N)=O)C(=O)N[C@@H](CCCNC(=N)N)C(=O)N[C@@H](CCC(=O)O)C(=O)N[C@@H](CCC(N)=O)C(=O)N[C@@H](C)C(=O)N[C@@H](CCC(=O)O)C(=O)N[C@@H](CCCCN)C(=O)N[C@@H](CC(N)=O)C(=O)N[C@@H](CCCCN)C(=O)N[C@@H](CCC(N)=O)C(=O)N[C@H](C(=O)N[C@@H](CC(C)C)C(=O)N[C@@H](CCC(=O)O)C(=O)N[C@@H](CCCNC(=N)N)C(=O)N[C@H](C(N)=O)C(C)C)[C@@H](C)CC)[C@@H](C)CC)[C@@H](C)CC)C(C)C)C(C)C` [compound 133] (H-IVLSLD[dV]PIKLK([AEEA-AEEA-γGlu-C18 diacid])QILLKQERQK[Aib]QREQAEKNKQILERV-NH2; N-terminus assumed), the concentration for a half-maximal effect (EC50) is, setting by setting: under setting [1], 0.09 nM; under setting [2], 3.19 nM.

Regarding `CC[C@H](C)[C@H](NC(=O)[C@H](CCC(N)=O)NC(=O)[C@H](CCCCN)NC(=O)[C@H](CC(N)=O)NC(=O)[C@@H](NC(=O)[C@H](CCCCN)NC(=O)[C@H](C)NC(=O)[C@H](CCCCN)NC(=O)[C@H](CCC(N)=O)NC(=O)[C@H](CCCNC(=N)N)NC(=O)[C@H](CCC(N)=O)NC(=O)[C@H](CCCCN)NC(=O)[C@H](CCCCN)NC(=O)[C@H](CCC(N)=O)NC(=O)[C@H](CCCCN)NC(=O)[C@H](CCC(=O)O)NC(=O)[C@H](CCC(N)=O)NC(=O)[C@H](CCCCN)NC(=O)[C@H](CC(C)C)NC(=O)[C@H](CC(C)C)NC(=O)[C@@H](NC(=O)[C@H](CCC(N)=O)NC(=O)[C@H](CCCCNC(=O)COCCOCCNC(=O)COCCOCCNC(=O)CC[C@H](NC(=O)CCCCCCCCCCCCCCCCC(=O)O)C(=O)O)NC(=O)[C@@H](NC(=O)[C@H](CCCCN)NC(=O)[C@@H](NC(=O)[C@@H]1CCCN1C(=O)[C@@H](NC(=O)[C@H](CC(=O)O)NC(=O)[C@H](CC(C)C)NC(=O)[C@H](CO)NC(=O)[C@H](CC(C)C)NC(=O)[C@@H](NC(=O)[C@@H](N)Cc1ccccc1)[C@@H](C)O)C(C)C)[C@@H](C)O)[C@@H](C)CC)[C@@H](C)CC)[C@@H](C)O)C(=O)N[C@@H](CC(C)C)C(=O)N[C@@H](CCC(=O)O)C(=O)N[C@@H](CCCNC(=N)N)C(=O)N[C@H](C(N)=O)C(C)C` [compound 143] (H-FTLSLDVPTKIK([AEEA-AEEA-γGlu-C18 diacid])QILLKQEKQKKQRQKAKTNKQILERV-NH2), the EC50 is, setting by setting: (EC50 [nM], 0% HSA) 1.44 nM; (EC50 [nM], 0.1% HSA) 93.8 nM.

For the molecule `CC[C@H](C)[C@H](NC(=O)[C@H](CCC(N)=O)NC(=O)[C@H](CCCCN)NC(=O)[C@H](CC(N)=O)NC(=O)[C@@H](NC(=O)[C@H](CCCCN)NC(=O)[C@H](C)NC(=O)[C@H](CCCCN)NC(=O)[C@H](CCC(N)=O)NC(=O)[C@H](CCCNC(=N)N)NC(=O)[C@H](CCC(N)=O)NC(=O)[C@H](CCCCN)NC(=O)[C@H](CCCCN)NC(=O)[C@H](CCC(N)=O)NC(=O)[C@H](CCCNC(=N)N)NC(=O)[C@H](CCC(=O)O)NC(=O)[C@H](CCC(N)=O)NC(=O)[C@H](CCCCN)NC(=O)[C@H](CC(C)C)NC(=O)[C@H](CC(C)C)NC(=O)[C@@H](NC(=O)[C@H](CCC(N)=O)NC(=O)[C@H](CCCCNC(=O)COCCOCCNC(=O)COCCOCCNC(=O)CC[C@H](NC(=O)CCCCCCCCCCCCCCCCC(=O)O)C(=O)O)NC(=O)[C@@H](NC(=O)[C@H](CCCCN)NC(=O)[C@@H](NC(=O)[C@@H]1CCCN1C(=O)[C@@H](NC(=O)[C@H](CC(=O)O)NC(=O)[C@H](CC(C)C)NC(=O)[C@H](CO)NC(=O)[C@H](CC(C)C)NC(=O)[C@@H](NC(=O)[C@@H](N)Cc1ccccc1)[C@@H](C)O)C(C)C)[C@@H](C)O)[C@@H](C)CC)[C@@H](C)CC)[C@@H](C)O)C(=O)N[C@@H](CC(C)C)C(=O)N[C@@H](CCC(=O)O)C(=O)N[C@@H](CCCNC(=N)N)C(=O)N[C@H](C(N)=O)C(C)C` [compound 144] (H-FTLSLDVPTKIK([AEEA-AEEA-γGlu-C18 diacid])QILLKQERQKKQRQKAKTNKQILERV-NH2), the EC50 reads like this: under setting [1], 1.36 nM; under setting [2], 76.3 nM.
